Measured values taken from ChEMBL document CHEMBL1139381 (J Med Chem, 2009).

What was measured:
Plasmodium falciparum [1] = assay: Antimalarial activity after 72 hrs against chloroquine-sensitive Plasmodium falciparum D10 infected human A+ erythrocytes in Makler LDH reporter assay; type: functional, organism-based; conditions: D10, 72 h
Plasmodium falciparum [2] = assay: Antimalarial activity after 48 hrs against chloroquine-sensitive Plasmodium falciparum NF54 infected human A+ erythrocytes by [3H]hypoxanthine uptake; type: functional, organism-based
Plasmodium falciparum [3] = assay: Antimalarial activity after 48 hrs against chloroquine-resistant asynchronous Plasmodium falciparum K1 infected human A+ erythrocytes by [3H]hypoxanthine uptake; type: functional, organism-based
Plasmodium falciparum [4] = assay: Antimalarial activity after 72 hrs against chloroquine-resistant Plasmodium falciparum W2 infected human A+ erythrocytes by Makler LDH reporter assay; type: functional, organism-based; conditions: W2, 72 h
Plasmodium chabaudi [5] = assay: Antimalarial activity as reduced parasitaemia against Plasmodium chabaudi AS infected CD1 mice (Mus musculus) at 50 mg/kg/day peroral dose; type: functional; set-up: scale not given: the % may be the effect or the level left; conditions: route oral
Plasmodium falciparum [6] = assay: Antimalarial activity after 24 hrs against chloroquine-resistant synchronous Plasmodium falciparum K1 infected human A+ erythrocytes by [3H]hypoxanthine uptake; type: functional, organism-based
[7] = Cytotoxicity against human Daudi cells by MTT assay; type: cell-based; conditions: read-out: TC50 (the source's name)
[8] = Cytotoxicity against PHA-stimulated human lymphocytes by MTT assay; type: cell-based, Lymphocyte; conditions: read-out: TC50 (the source's name)
[9] = Cytotoxicity against human KB cells by MTT assay; type: cell-based; conditions: read-out: TC50 (the source's name)
[10] = Cytotoxicity against mouse NSO cells by MTT assay; type: cell-based; conditions: read-out: TC50 (the source's name)
[11] = Cmax in CD-COBS rat at 50 mg/kg, po after 60 mins; type: ADME, organism-based; set-up: time < 1 hr, dose 50 mg/kg, route oral; conditions: in vivo, read-out: AUC
[12] = Liver concentration in CD1 albino mouse at 50 mg/kg, po after 180 mins
Liver [13] = assay: AUC (0 to t) in CD-COBS rat liver at 50 mg/kg, po after 180 mins; type: ADME, organism-based; set-up: time < 3 hr, dose 50 mg/kg, route oral; conditions: in vivo, 3 h
Plasmodium berghei [14] = assay: Antimalarial activity as increased survival against Plasmodium berghei ANKA infected CD1 mice (Mus musculus) at 50 mg/kg/day peroral dose over 4 days; type: functional; conditions: route oral
[15] = Elimination half life in CD-COBS rat at 5 mg/kg, iv; type: ADME, organism-based; set-up: dose 5 mg/kg, route intravenous; conditions: in vivo
Plasmodium falciparum [16] = assay: Antimalarial activity after 24 hrs against chloroquine-sensitive Plasmodium falciparum 3D7 infected human A+ erythrocytes by [3H]hypoxanthine uptake; type: functional, organism-based
[17] = Ratio of drug level in blood to plasma of CD-COBS rat at 5 mg/kg, iv; type: ADME, organism-based; set-up: dose 5 mg/kg, route intravenous; conditions: blood and plasma
Mus musculus = assay: AUC (0 to t) in CD1 albino mouse at 50 mg/kg, po after 60 mins; type: ADME, organism-based, Plasma; set-up: time < 1 hr, dose 50 mg/kg, route oral; conditions: in vivo, 1 h
[18] = Ratio of drug level in liver to plasma of CD-COBS rat at 50 mg/kg, po after 180 mins; type: ADME, organism-based; set-up: dose 50 mg/kg, route oral; conditions: liver and plasma
[19] = molecular target: T1, Histidine-rich protein PFHRP-II (Plasmodium falciparum) (UniProt P05227); assay: Inhibition of beta-hematin assessed as molar equivalents at pH 2.7 after 18 hrs by spectrophotometric microassay relative to hemin; type: functional
T1 sequence (whole entry): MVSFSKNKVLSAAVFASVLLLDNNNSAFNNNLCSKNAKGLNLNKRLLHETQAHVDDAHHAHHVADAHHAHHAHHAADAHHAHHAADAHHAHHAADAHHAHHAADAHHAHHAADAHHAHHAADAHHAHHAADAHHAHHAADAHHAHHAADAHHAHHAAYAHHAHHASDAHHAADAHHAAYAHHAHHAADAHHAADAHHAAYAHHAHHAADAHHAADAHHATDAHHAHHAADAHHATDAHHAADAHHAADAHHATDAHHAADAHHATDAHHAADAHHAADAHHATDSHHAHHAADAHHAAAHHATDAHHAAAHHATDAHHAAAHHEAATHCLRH

[20] = Apparent volume of distribution in CD-COBS rat at 5 mg/kg, iv; type: ADME, organism-based; set-up: dose 5 mg/kg, route intravenous; conditions: in vivo
Rattus norvegicus = assay: AUC (0 to t) in CD-COBS rat at 50 mg/kg, po after 60 mins; type: ADME, organism-based, Plasma; set-up: time < 1 hr, dose 50 mg/kg, route oral; conditions: in vivo, 1 h
[21] = Ratio of drug level in liver to plasma of CD1 albino mouse at 50 mg/kg, po after 180 mins; type: ADME, organism-based; set-up: dose 50 mg/kg, route oral; conditions: liver and plasma
[22] = Cmax in CD1 albino mouse at 50 mg/kg, po after 60 mins; type: ADME, organism-based; set-up: dose 50 mg/kg, route oral; conditions: in vivo
Plasmodium berghei [23] = assay: Antimalarial activity as reduced parasitaemia against Plasmodium berghei ANKA infected CD1 mice (Mus musculus) at 50 mg/kg/day peroral dose over 4 days; type: functional; set-up: scale not given: the % may be the effect or the level left; conditions: route oral
[24] = Liver concentration in CD-COBS rat at 50 mg/kg, po after 180 mins
Liver [25] = assay: AUC (0 to t) in CD1 albino mouse liver at 50 mg/kg, po after 180 mins; type: ADME, organism-based; set-up: time < 3 hr, dose 50 mg/kg, route oral; conditions: in vivo, 3 h
Plasmodium berghei [26] = assay: Antimalarial activity as reduced parasitaemia against Plasmodium berghei ANKA infected CD1 mice (Mus musculus) at 150 mg/kg/day oral dose over 4 days; set-up: scale not given: the % may be the effect or the level left
Plasmodium berghei [27] = assay: Antimalarial activity as increased survival against Plasmodium berghei ANKA infected CD1 mice (Mus musculus) at 10 mg/kg/day peroral dose over 4 days; type: functional; conditions: route oral
Plasmodium chabaudi [28] = assay: Antimalarial activity as reduced parasitaemia against Plasmodium chabaudi AS infected CD1 mice (Mus musculus) at 10 mg/kg/day peroral dose over 4 days; type: functional; set-up: scale not given: the % may be the effect or the level left; conditions: route oral
Plasmodium berghei [29] = assay: Antimalarial activity as reduced parasitaemia against Plasmodium berghei ANKA infected CD1 mice (Mus musculus) at 30 mg/kg/day intraperitoneal dose over 4 days; type: functional; set-up: scale not given: the % may be the effect or the level left

## Clc1ccc(C(Nc2ccnc3cc(Cl)ccc23)(c2ccc(Cl)cc2)c2ccc(CN3CCCC3)cc2)cc1
Plasmodium falciparum [1]
  IC50: 0.048 µM
Plasmodium falciparum [2]
  IC50: 0.016 µM
Plasmodium falciparum [3]
  IC50: 0.028 µM
Plasmodium falciparum [4]
  IC50: 0.056 µM

## FC(F)(F)c1ccc2c(NC(c3ccc(Cl)cc3)c3ccc(CN4CCCC4)cc3)ccnc2c1 (racemic)
Plasmodium falciparum [1]
  IC50: 0.061 µM
Plasmodium falciparum [2]
  IC50: 0.033 µM
Plasmodium chabaudi [5]
  Activity: 99.6%
Plasmodium falciparum [6]
  IC50: 0.03 µM
[7]
  CC50: 14.1 µM
[8]
  CC50: 24.2 µM
Plasmodium falciparum [3]
  IC50: 0.02 µM
[9]
  CC50: 5.5 µM
Plasmodium falciparum [4]
  IC50: 0.09 µM
[10]
  CC50: 12.1 µM

## COc1ccc2nccc(NC(c3ccc(Cl)cc3)c3ccc(CN4CCOCC4)cc3)c2c1 (racemic)
Plasmodium falciparum [1]
  IC50: 0.067 µM
Plasmodium falciparum [2]
  IC50: 0.033 µM
Plasmodium falciparum [3]
  IC50: 0.054 µM
Plasmodium falciparum [4]
  IC50: 0.065 µM

## COc1ccc2nccc(NC(c3ccc(CN4CCOCC4)cc3)c3cccc(Cl)c3)c2c1 (racemic)
Plasmodium falciparum [1]
  IC50: 0.086 µM
Plasmodium falciparum [2]
  IC50: 0.043 µM
Plasmodium falciparum [3]
  IC50: 0.067 µM
Plasmodium falciparum [4]
  IC50: 0.127 µM

## Clc1cccc(C(Nc2ccnc3cc(Cl)ccc23)c2ccc(CN3CCCC3)cc2)c1 (racemic)
Plasmodium falciparum [1]
  IC50: 0.021 µM
[11]
  Cmax: 0.18 µg/mL
[12]
  concentration at 3 h: 52200 ng/g
Liver [13]
  AUC: 2945 µg/g
Plasmodium berghei [14]
  Survival: 18 days
[15]
  half-life: 3 h
Plasmodium falciparum [2]
  IC50: 0.012 µM
Plasmodium chabaudi [5]
  Activity: 98%
Plasmodium falciparum [16]
  IC50: 0.024 µM
[17]
  blood plasma ratio: 1.1
Plasmodium falciparum [6]
  IC50: 0.065 µM
[7]
  CC50: 34.6 µM
Mus musculus
  AUC: 0.725 µg·h/mL
[18]
  Kp at 3 h: > 100
[19]
  Ratio: 1.33
[20]
  Vd: 48 L/kg
[8]
  CC50: 54.1 µM
Rattus norvegicus
  AUC: 0.422 µg·h/mL
[21]
  Kp at 3 h: > 100
[22]
  Cmax: 0.33 µg/mL
Plasmodium berghei [23]
  Activity: 98%
Plasmodium falciparum [3]
  IC50: 0.016 µM
Plasmodium falciparum [4]
  IC50: 0.022 µM
[24]
  concentration at 3 h: 30500 ng/g
[10]
  CC50: 23.8 µM
Liver [25]
  AUC: 7061 µg/g

## COc1ccc2nccc(NC(c3ccc(CN4CCCC4)cc3)c3cccc(Cl)c3)c2c1 (racemic)
Plasmodium falciparum [1]
  IC50: 0.04 µM
Plasmodium falciparum [2]
  IC50: 0.039 µM
Plasmodium falciparum [3]
  IC50: 0.065 µM
Plasmodium falciparum [4]
  IC50: 0.055 µM

## FC(F)(F)c1cc(NC(c2ccc(Cl)cc2)c2ccc(CN3CCCC3)cc2)c2cccc(C(F)(F)F)c2n1 (racemic)
Plasmodium falciparum [1]
  IC50: 1.24 µM
Plasmodium falciparum [16]
  IC50: 0.1 µM
Plasmodium falciparum [6]
  IC50: 0.45 µM
[9]
  CC50: 213 µM
Plasmodium falciparum [4]
  IC50: 1.37 µM

## Clc1cccc(C(Nc2ccnc3cc(Cl)ccc23)c2ccc(CN3CCOCC3)cc2)c1 (racemic)
Plasmodium falciparum [1]
  IC50: 0.142 µM
Plasmodium falciparum [2]
  IC50: 0.043 µM
Plasmodium falciparum [3]
  IC50: 0.062 µM
Plasmodium falciparum [4]
  IC50: 0.22 µM

## FC(F)(F)c1ccc2c(NC(c3ccc(CN4CCOCC4)cc3)c3cccc(Cl)c3)ccnc2c1 (racemic)
Plasmodium falciparum [1]
  IC50: 0.234 µM
Plasmodium falciparum [4]
  IC50: 0.304 µM

## Clc1ccccc1C(c1ccccc1)(c1ccccc1)n1ccnc1 [CLOTRIMAZOLE]
Plasmodium berghei [26]
  Activity: 28.3%
Plasmodium chabaudi [5]
  Activity: 6%

## Clc1ccc(C(Nc2ccnc3cc(Cl)ccc23)(c2ccccc2)c2ccc(CN3CCCC3)cc2)cc1 (racemic)
Plasmodium falciparum [1]
  IC50: 0.04 µM
Plasmodium chabaudi [5]
  Activity: 99.9%
Plasmodium falciparum [16]
  IC50: 0.003 µM
Plasmodium falciparum [6]
  IC50: 0.022 µM
Plasmodium falciparum [4]
  IC50: 0.051 µM

## CCN(CC)CCCC(C)Nc1ccnc2cc(Cl)ccc12 (stereo not given) [CHLOROQUINE]
[7]
  CC50: 16.7 µM
[8]
  CC50: 18.6 µM
Plasmodium berghei [27]
  Survival: 16.3 days
Plasmodium chabaudi [28]
  Activity: 99.9%
[10]
  CC50: 14.9 µM

## Clc1ccc(C(Nc2ccnc3cc(Cl)ccc23)c2ccc(CN3CCCC3)cc2)cc1 (racemic)
Plasmodium falciparum [1]
  IC50: 0.046 µM
[15]
  half-life: 0.733 h
Plasmodium falciparum [2]
  IC50: 0.013 µM
Plasmodium chabaudi [5]
  Activity: 99.5%
Plasmodium falciparum [16]
  IC50: 0.0037 µM
Plasmodium falciparum [6]
  IC50: 0.009 µM
[7]
  CC50: 8.6 µM
[20]
  Vd: 40 L/kg
[8]
  CC50: 17.3 µM
Plasmodium falciparum [3]
  IC50: 0.014 µM
[9]
  CC50: 19.6 µM
Plasmodium falciparum [4]
  IC50: 0.072 µM
[10]
  CC50: 8.6 µM

## Clc1ccc([C@](c2ccccc2)(c2ccc(CN3CCCC3)cc2)n2ccnc2)cc1
Plasmodium falciparum [1]
  IC50: 0.13 µM
Plasmodium chabaudi [5]
  Activity: 94.8%
Plasmodium falciparum [16]
  IC50: 0.007 µM
Plasmodium falciparum [6]
  IC50: 0.005 µM
[19]
  Ratio: 2.5
Plasmodium berghei [29]
  Activity: 37.6%
Plasmodium falciparum [4]
  IC50: 0.059 µM

## COc1ccc2nc3cc(Cl)ccc3c(NC(c3ccc(Cl)cc3)(c3ccc(Cl)cc3)c3ccc(CN4CCCC4)cc3)c2c1
Plasmodium falciparum [1]
  IC50: 0.143 µM
Plasmodium falciparum [2]
  IC50: 0.135 µM
Plasmodium falciparum [3]
  IC50: 0.199 µM
Plasmodium falciparum [4]
  IC50: 0.149 µM

## COc1ccc2nccc(NC(c3ccc(Cl)cc3)c3ccc(CN4CCCC4)cc3)c2c1 (racemic)
Plasmodium falciparum [1]
  IC50: 0.057 µM
Plasmodium falciparum [2]
  IC50: 0.032 µM
Plasmodium falciparum [16]
  IC50: 0.008 µM
Plasmodium falciparum [6]
  IC50: 0.06 µM
Plasmodium falciparum [3]
  IC50: 0.032 µM
[9]
  CC50: 8.5 µM
Plasmodium falciparum [4]
  IC50: 0.082 µM

## Clc1ccc(C(Nc2ccnc3cc(Cl)ccc23)c2ccc(CN3CCOCC3)cc2)cc1 (racemic)
Plasmodium falciparum [1]
  IC50: 0.087 µM
Plasmodium falciparum [2]
  IC50: 0.019 µM
Plasmodium falciparum [3]
  IC50: 0.021 µM
Plasmodium falciparum [4]
  IC50: 0.084 µM

## COc1ccc2nc3cc(Cl)ccc3c(NC(c3ccc(Cl)cc3)c3ccc(CN4CCCC4)cc3)c2c1 (racemic)
Plasmodium falciparum [1]
  IC50: 0.049 µM
Plasmodium falciparum [2]
  IC50: 0.019 µM
Plasmodium chabaudi [5]
  Activity: 99.9%
Plasmodium falciparum [16]
  IC50: 0.001 µM
Plasmodium falciparum [6]
  IC50: 0.008 µM
[7]
  CC50: 11.1 µM
[8]
  CC50: 16.6 µM
Plasmodium falciparum [3]
  IC50: 0.02 µM
Plasmodium falciparum [4]
  IC50: 0.059 µM
[10]
  CC50: 11.1 µM
